Test results: patent publication US20070148643A1, “Treatment of Huntington's Disease with EPA” (priority 2002, published 2007)

Assays:
[1] = tested on: patients with genetically-confirmed HD; assay: one year randomised placebo-controlled trial of ethyl-EPA in HD, total motor score (TMS) subscale of the UHDRS; type: in vivo, human
Method: 135 patients with genetically-confirmed HD were entered into a one year trial. They were randomised to receive either 2 g/day of ethyl-EPA or an identical-appearing placebo. They were evaluated at baseline, six months and 12 months on the total motor score (TMS) subscale of the Unified Huntington's Disease Rating Scale (UHDRS). The UHDRS is the standard rating scale which is used to monitor the development of HD. The TMS is the component of the UHDRS which changes most reliably, rapidly and consistently and is therefore appropriate for monitoring the outcome of clinical trials. At the end of one year, change in TMS was compared in the placebo group and the ethyl-EPA group. […] However, when patients were stratified on the basis of their CAG repeat numbers, a dramatic benefit of ethyl-EPA was uncovered. […] Placebo patients with CAG repeat numbers 45 and below deteriorated by an average of 5.3%. In contrast, the same group of patients on ethyl-EPA improved over the year by 19.3%. This difference was highly statistically significant on either analysis of covariance or on chi square testing. […] Previously the best that had been hoped for in neurodegenerative diseases like HD was a slowing of deterioration rather than any actual improvement. […] Putting it another way, the treated patients had gained at least four and a half years of useful life.

[2] = tested on: severely disabled patients in the final stages of Huntington's disease; conditions: 2 g/day, 6 months, cited from earlier work

CC/C=C\C/C=C\C/C=C\C/C=C\C/C=C\CCCC(=O)OCC [ethyl-EPA, ethyl ester of eicosapentaenoate]
proportion of patients improving on TMS ([1]; 2 g/day, CAG repeats 45 and below): great majority of patients on ethyl-EPA actually improved
improvement in TMS over the year, patients with CAG repeat numbers 45 and below ([1]; 2 g/day, CAG repeats 45 and below, placebo deteriorated by 5.3%): 19.3%
benefit versus placebo, patients with CAG repeat numbers of 45 or below ([1]; 2 g/day, CAG repeats 45 or below (below 45)): large benefit
change in TMS versus placebo, patients with CAG repeat number of 46 or more ([1]; 2 g/day, CAG repeats 46 or more): did not show any difference at all between placebo and ethyl-EPA
change in TMS versus placebo, all patients ([1]; 2 g/day, all patients (not stratified)): better outcome on ethyl-EPA than on placebo but this was not statistically significant
improvement relative to the change in patients on placebo over one year ([1]; CAG repeats 45 and below): more than three and a half times more
separation of EPA and placebo patients in years of disease progression after one year ([1]; CAG repeats 45 and below): more than four and a half years
clinical course (abnormal movements, emotional lability and irritability, memory and cognitive function) ([2]; three patients on ethyl-EPA, four on placebo): all three patients who improved were found to be taking ethyl-EPA
lateral ventricle size by MRI ([2]; two patients on ethyl-EPA, beginning versus end of study): reduction in lateral ventricle size
